The values below are quoted from earlier work in patent publication EP1862927B1, “Descriptors of three-dimensional objects, uses thereof and a method to generate the same” (SILICOS NV, priority 2006, dated 2007).

For this data set, the target named is T1, human soluble epoxide hydrolase (Homo sapiens, UniProt P34913).
T1 sequence (P34913 1-555): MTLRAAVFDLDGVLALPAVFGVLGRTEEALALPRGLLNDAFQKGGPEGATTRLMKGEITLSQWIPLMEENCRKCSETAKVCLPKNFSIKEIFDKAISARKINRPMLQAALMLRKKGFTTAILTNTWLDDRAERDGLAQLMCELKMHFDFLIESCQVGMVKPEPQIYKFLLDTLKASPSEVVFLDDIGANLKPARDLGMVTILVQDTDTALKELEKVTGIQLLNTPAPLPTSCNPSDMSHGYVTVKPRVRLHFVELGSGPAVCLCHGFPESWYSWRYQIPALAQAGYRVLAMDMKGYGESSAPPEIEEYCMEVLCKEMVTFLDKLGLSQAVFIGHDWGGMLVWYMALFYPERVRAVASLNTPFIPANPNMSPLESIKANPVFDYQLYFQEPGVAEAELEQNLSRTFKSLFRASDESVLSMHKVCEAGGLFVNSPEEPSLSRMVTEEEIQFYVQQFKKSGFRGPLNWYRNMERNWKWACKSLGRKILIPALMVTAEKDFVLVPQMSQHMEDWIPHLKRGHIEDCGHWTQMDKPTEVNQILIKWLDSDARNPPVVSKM
Conditions: inhibition constants of urea-like molecular species taken from McElroy et al., J. Med. Chem. 46, 1066-1080.

The structures appear in SMILES notation.

Turning to `O=C(NCC1CCCCC1)NC1C2CC3CC(C2)CC1C3` (stereo not shown) [molecular species 136], the IC50 is 100 nM.
